{
  "source": "patent US7244712B2",
  "about": "“Aminoglycoside antibiotics and methods of using same” (priority 2004, dated 2007)",
  "key": {"80S ribosome": {"target": "80S ribosome", "test": "Fluorescence anisotropy binding to 80S ribosomes", "design": "species or system yeast (S. cerevisiae)", "conditions": "competition with CRP, yeast ribosomes; read-out: Dissociation constant (KD) with 80S ribosome", "protocol": "After establishing the lack of stereospecificity in the binding of aminoglycosides to the A-site RNA constructs (FIG. 9A-C) where the binding affinity, KD, is about 0.1 μM to about 100 μM, the stereospecificity of aminoglycoside binding to intact ribosomes was determined. Both yeast and E. coli ribosomes were prepared and aminoglycoside binding was measured using fluorescence anisotropy methods. For example, fluorescence anisotropy methods recited in Wang, Y., and Rando, R. R. Chem. Biol. (1995) 2, 281-290; and Wang, Y., Hamasaki, K., and Rando, R. R. Biochemistry (1997) 36,768-779. CRP was used as the binding probe. […] Binding data reported herein for aminoglycoside compounds with eukaryotic yeast ribosomes are similar to binding data for said aminoglycoside compounds with ribosoimes in bacteria and with eukaryotic A-site rRNA constructs.\n5-Carboxytetramethylrhodamine-labeled paromomycin (CRP) and tobramycin (CRT) concentrations were determined spectroscopically at 550 nm using a molar extinction coefficient of 6.00×10 4 M −1 cm −1. Fluorescence anisotropy measurements were performed on a Perkin-Elmer LS-50B luminescence spectrometer equipped with a thermostat accurate to ±0.1° C. as indicated previously (Wang, Y., Hamasaki, K., & Rando, R. R. (1997) Biochemistry 36, 768-779). The tracer solution was excited at 550 nm and monitored at 580 nm. The integration time was 5 s. For every point, 6 measurements were taken, and their average values were used for calculation. Measurements were carried out in a buffer solution containing 150 mM NaCl, 5 mM KCl, 1 mM CaCl2, 1 mM MgCl2, and 20 mM HEPES (pH 7.5). Prior to measurements, RNA constructs were renatured by incubating in binding buffer {150 mM NaCl, 5 mM KCl, 1 mM CaCl2, 1 mM MgCl2, and 20 mM HEPES (pH 7.5)} for 3 minutes at 90° C. followed by slow cooling to 25° C.\nEquation 1 was used for the determination of the dissociation constant (Kd) for the interactions between RNA or ribosome and CRP. A=A0+DA{(RNA)0+(CRP)0+Kd−({(RNA)0+(CRP)0+Kd}^2−4(RNA)0(CRP)0)½}/2 where A and A0 are the fluorescence anisotropy of CRP in the presence and absence of RNA, respectively, and DA is the difference between the fluorescence anisotropy of CRP in the presence of an extrapolated infinite concentration of RNA minus the fluorescence anisotropy in the absence of RNA. (RNA)0 and (CRP)0 are the initial concentrations of RNA and CRP, respectively.\nEquation 2 is used for the calculation of the KD values in the competition binding assay. (aminoglycoside)0={KD(A−−A)/Kd(A−A0)+1}{(RNA)0−Kd(A−A0)/(A−−A)−(CRP)0(A−A0)/(A−−A)} where KD is the dissociation constant between the RNA and the aminoglycosides; (aminoglycoside)0 is the initial concentration of the aminoglycosides; AL is anisotropy of completely bound tracer. Both Kd and KD were determined by non-linear curve fitting using the equations described above, and are presented as mean values of three independent measurements.\nThe purification of yeast 80S ribosomes from S. cerevisiae strain YSB 758 was carried out according to the published procedure (Verschoor, A., Warner, J. R., Srivastava, S., Grassucci, R. A., & Frank, J. (1997) Nucl. Acid Res. 26, 655-661). S. cerevisiea YSB 758 were grown for 12 hrs at 30° C. in 2L of YPD medium, containing: 20 g bacto peptone, 20 g glucose, 10 g yeast extract and 0.15 g tryptophan per 1 L, pH 7.0. The cells were lysed by 5-10 cycles of 1 min vigorous shaking with glass beads with a vortex, followed by cooling on ice. Clarified cell extract (about 9 mL total, used in 6 portions in 1.5 mL aliqouts) was carefully loaded on top of 2 mL of a cushion, composed of 10% sucrose and 5% ammonium sulfate dissolved in buffer YR1 (20 mM HEPES pH=7.4, 16 mM magnesium chloride, 100 mM potassium chloride, 5 mM DTT, and 0.5 mM EDTA). The ribosomes were collected by centrifugation in Beckman TL100.3 rotor at 75000 rpm for 3 h. The supernatants were carefully discarded and ribosomes were collected in buffer YR1. […]"}, "[1]": {"test_system": "E. coli S30 extract, containing 70S ribosomes", "test": "In vitro protein translation (CAT mRNA, 35S methionine incorporation)", "format": "biochemical", "conditions": "quantitation of gel bands, read-out: IC50, concentration producing 50% inhibition of translation", "description": "Protein translation was performed from chloramphenicol acetyl transferase (CAT) mRNA. […] A commercial E. coli ribosomal suspension was supplemented with an E. coli extract containing the required elements for translation. These include translation factors, tRNAs, and aminoacyl tRNA synthases. Plasmid, T7 RNA polymerase and amino acids were added to the reaction mixture, and both transcription and translation steps were performed in the same vial. The effects of the aminoglycosides on the translation process were evaluated by measuring the incorporation of ^35S methionine in the translated chloramphenicol acetyl transferase protein.\nIn vitro translation was performed by using PROTEINscript™-PRO (Ambion) kit. […] Reaction mixtures contained appropriate concentrations of antibiotic (neomycin B, D- and L-neamine). The protein was translated from CAT mRNA, transcribed from control DNA template containing CAT gene under control of the T7 promotor. The product, ˜25 kDa chloramphenicol acetyl transferase, was labeled during translation with 1 μCi ^35S methionine (New England Nuclear) per reaction (no cold methionine was added).\nFollowing the translation, the samples were analyzed by electrophoresis on 4-20% SDS mini-gels (Invitrogen) for 1.5 h at 120V. Gels were fixed with 40% methanol/10% acetic acid and exposed to Molecular Dynamics phosphoimager plates, which were read on a Personal FX phosphoimager (Bio-Rad) and quantitated using QuantityOne™ software."}, "E. faecalis": {"test_system": "E. faecalis", "test": "Antibacterial activity against E. faecalis", "format": "cell-based"}, "[2]": {"test_system": "E. coli (ATCC 25922) transformed with pMM plasmid bearing APH(3')IIa", "test": "MIC, kanamycin/neomycin resistant E. coli", "format": "cell-based", "conditions": "growth inhibition greater than 90%", "protocol": "E. coli (ATCC 25922) and P. aeruginosa (ATCC 27853) (BD Bioscience) were inoculated in 3 mL of the medium 2 (U.S. Pharmacopia), containing 6 g peptone, 3 g yeast extract and 1.5 g beef extract per 1 L, pH 6.6, and were grown in a shaker for 6 h at 37° C. until an OD 560=0.6-0.8 was reached.\n(§1) Minimal inhibitory concentrations (MIC) were measured according to the published method (Greenberg, W. A., Priestley, E. S., Sears, P. S., Alper, P. B., Rosenbohm, C., Hendrix, M., Hung, S.-C., & Wong, C.-H. (1999) J. Am. Chem. Soc. 121, 6527-6541). E. coli (ATCC 25922) (both wild type and pMM-transformed) and P. aeruginosa (ATCC 27853) were grown in medium 2 to an optical density OD 600 of 0.6-0.8. The inoculi were diluted to OD 600 ˜0.1 in medium 2 and 1 mL of the culture was placed in 13 mL test tubes. The desired concentrations of antibiotic were added from stock solutions. […] The absorbance at 600 nm of each sample was read and MIC was taken as the lowest antibiotic concentration inhibiting bacterial growth by greater than 90%."}, "E. coli (ATCC 25922)": {"test_system": "E. coli (ATCC 25922)", "test": "MIC, wild type E. coli", "format": "cell-based", "conditions": "growth inhibition greater than 90%", "protocol": "as §1"}},
  "data": [
    {"smiles": "NCC1OC(OC2C(N)CC(N)C(O)C2O)C(N)C(O)C1O", "note": "[L-Neamine]", "values": [
      {"measurement": "Kd", "setting": "80S ribosome", "value": "6.06 ± 0.63", "unit": "µM"},
      {"measurement": "IC50", "setting": "[1]", "value": 195, "unit": "µM"},
      {"measurement": "Antibacterial activity against E. faecalis", "setting": "E. faecalis", "value": "little to no antibacterial activity"},
      {"measurement": "Minimal inhibitory concentration (MIC), E. coli kan/neo resistant", "setting": "[2]", "value": 2100, "unit": "µM"},
      {"measurement": "Minimal inhibitory concentration (MIC), E. coli", "setting": "E. coli (ATCC 25922)", "value": 1300, "unit": "µM"}
    ]}
  ]
}
